# What was measured:
# Type in all cases: physicochemical
# [1] = BET surface area measurement (nitrogen adsorption at 77 K); conditions: nitrogen adsorbate, PSA:GF ratio based on mass charged to crystallizer
# Experimental: A Quantachrome Autosorb-IC (Boynton Beach, Fla.) was used to measure surface areas of the samples at 77 K. A known amount of powder (typically 500 mg) was loaded into a Quantachrome powder cell and outgassed for about 1 hr. Nitrogen was used as the adsorbate, and the equations derived by Brunauer, Emmett, and Teller (BET) were used by the software provided with the instrument to calculate the specific surface areas.
# [2] = Short term stability study at ICH conditions, characterised by XRPD
# Experimental: A short term stability study was conducted at two International Conference on Harmonization (ICH) stability conditions, i.e. 25° C./60% relative humidity and 40° C./75% relative humidity. A thin layer of powder was placed in a 20 mL capped glass scintillation vial, and the vials were placed in a sealed desicator that was set to either 25 or 40° C., and to the desired relative humidity over the appropriate saturated salt solution^32. Relative humidities of 60% and 75% were obtained using sodium bromide or sodium chloride, respectively. After initial storage (4 days), the samples were removed and characterized by XRPD. The samples were then returned to appropriate desicator and stored for another 19 days with the caps removed. Final sample characterization was by SEM and XRPD.
# [3] = Powder flow properties: bulk density, tapped density, compressibility (modified USP procedure); conditions: for Percent Compressibility: computed from bulk density and tapped density (equation 3)
# Experimental: Bulk densities of selected samples were measured using a modified USP procedure. A mass of sample (M), typically 0.5 g, was passed through a No. 18 test sieve (ASTM USA Standard Test Sieve, Fischer Scientific) into a tared 10 mL graduated cylinder. The powder was carefully leveled and the unsettled apparent volume (Vo) was read to the nearest 0.05 mL. The bulk density (ρb) was then calculated using equation 1: [formula] Each bulk density measurement was performed in triplicate, and the average value was reported. Tapped densities of selected samples were also obtained using a modified USP procedure. After the bulk density had been determined from the procedure described above, the graduate cylinder was mechanically tapped by raising the cylinder and allowing it to drop under its own weight using an apparatus that provided a fixed drop height of 14±2 mm. The nominal tap rate was 60 drops per minute. The cylinder was initially tapped 500 times and the tapped volume (VT) was read to the nearest 0.05 mL. The procedure was then repeated, in increments of 500 taps, until the difference between succeeding measurements was less than 2%. The tapped density (ρt) was then calculated using equation 2: [formula] Each tapped density measurement was performed in triplicate, and the average values for each sample is reported. Powder compressibility was computed from the bulk density and tapped density using equation 3: [formula] Determination of Griseofulvin Content in the Powder Samples
# Powder flow properties, as represented by the bulk density, tapped density, and percent compressibility, were determined for selected samples and are shown in Table 2.0, in which GF is griseofluvin and the PSA:GF ratio was based on the original mass charged to the crystallizer. Absent values from the table indicate inadequate sample volume for the measurement technique.
smiles,measurement,setting,value
"COC1=CC(=O)C[C@@H](C)[C@]12Oc1c(Cl)c(OC)cc(OC)c1C2=O [Bulk GF, griseofulvin]",BET-Surface Area,[1],2.98 m^2/g
same,XRPD diffraction pattern after storage (phase change),[2]; stored for 23 days at 25° C./60% RH,No new peaks
same,XRPD diffraction pattern after storage (phase change),[2]; stored for 23 days at 40° C./75% RH,No new peaks
same,Bulk Density,[3]; average of triplicate,0.2 ± 0.02 g/mL
same,Tapped Density,"[3]; average of triplicate, tapped in increments of 500 taps",0.4 ± 0.02 g/mL
same,Percent Compressibility,[3],49 +/− 3%
same,Percent Compressibility,[3]; listed as bulk griseofulvin,49±3%
